Test results as given in patent US20060128792A1, “Deguelin as a chemopreventive agent for lung cancer” (priority 2002, published 2006).
Where “and” joins values, the source holds several entries; their conditions need not be identical. Identical values can stand only once.

Assays:
Type in all cases: cell-based
H1299 = assay: MTT assay, growth inhibition by deguelin or deguelin derivatives; conditions: 3 days
H596 = assay: as above; conditions: 3 days
H460 = assay: as above; conditions: 3 days
H358 = assay: as above; conditions: 3 days
A549 = assay: as above; conditions: 3 days
H322 = assay: as above; conditions: 3 days
NSCLC cells = assay: MTT assay, growth inhibition of NSCLC cells by deguelin and deguelin derivatives (Table 2, FIG. 7); conditions: 0.01-1 μM, 3 days

C=C(C)[C@H]1Cc2c(ccc3c2O[C@@H]2COc4cc(OC)c(OC)cc4[C@@H]2C3=O)O1 [rotenone]
MTT assay reading, Average (H1299; H1299, 0.01 μM): 0.2794 | MTT assay reading, individual replicate (H1299; H1299, 0.01 μM): 0.249 and 0.392 and 0.221 and 0.209 and 0.261 and 0.311 and 0.313 | MTT assay reading, Average (H1299; H1299, 0.1 μM): 0.1907 | MTT assay reading, individual replicate (H1299; H1299, 0.1 μM): 0.25 and 0.3 and 0.158 and 0.09 and 0.125 and 0.235 and 0.177 | MTT assay reading, Average (H1299; H1299, 0.5 μM): 0.2391 | MTT assay reading, individual replicate (H1299; H1299, 0.5 μM): 0.308 and 0.259 and 0.248 and 0.197 and 0.195 and 0.179 and 0.288 | MTT assay reading, Average (H1299; H1299, 1 μM): 0.2753 | MTT assay reading, individual replicate (H1299; H1299, 1 μM): 0.226 and 0.193 and 0.23 and 0.175 and 0.76 and 0.148 and 0.195 | MTT assay reading, Average (H596; H596, 0.01 μM): 0.4666 | MTT assay reading, individual replicate (H596; H596, 0.01 μM): 0.393 and 0.433 and 0.462 and 0.499 and 0.497 (2×) and 0.485 | MTT assay reading, Average (H596; H596, 0.1 μM): 0.3784 | MTT assay reading, individual replicate (H596; H596, 0.1 μM): 0.271 and 0.369 and 0.513 and 0.582 and 0.413 and 0.285 and 0.216 | MTT assay reading, Average (H596; H596, 0.5 μM): 0.2329 | MTT assay reading, individual replicate (H596; H596, 0.5 μM): 0.189 and 0.362 and 0.261 and 0.296 and 0.156 and 0.203 and 0.163 | MTT assay reading, Average (H596; H596, 1 μM): 0.177 | MTT assay reading, individual replicate (H596; H596, 1 μM): 0.205 (2×) and 0.123 and 0.193 and 0.172 and 0.161 and 0.18 | % control (H460; H460, 0.01 μM): 0.14% | MTT assay reading, Average (H460; H460, 0.01 μM): 0.2486 | MTT assay reading, individual replicate (H460; H460, 0.01 μM): 0.092 and 0.412 and 0.24 and 0.191 and 0.228 and 0.242 and 0.335 | % control (H460; H460, 0.1 μM): 0.10% | MTT assay reading, Average (H460; H460, 0.1 μM): 0.1766 | MTT assay reading, individual replicate (H460; H460, 0.1 μM): 0.143 and 0.107 and 0.138 and 0.161 and 0.242 and 0.268 and 0.177 | % control (H460; H460, 0.5 μM): 0.09% | MTT assay reading, Average (H460; H460, 0.5 μM): 0.1499 | MTT assay reading, individual replicate (H460; H460, 0.5 μM): 0.185 and 0.159 and 0.143 and 0.1 and 0.104 and 0.117 and 0.241 | % control (H460; H460, 1 μM): 0.10% | MTT assay reading, Average (H460; H460, 1 μM): 0.1763 | MTT assay reading, individual replicate (H460; H460, 1 μM): 0.071 and 0.467 and 0.127 and 0.144 and 0.138 and 0.118 and 0.169 | MTT assay reading, Average (H358; H358, 0.01 μM): 0.3171 | MTT assay reading, individual replicate (H358; H358, 0.01 μM): 0.298 and 0.253 and 0.268 and 0.348 and 0.331 and 0.329 and 0.393 | MTT assay reading, Average (H358; H358, 0.1 μM): 0.309 | MTT assay reading, individual replicate (H358; H358, 0.1 μM): 0.257 and 0.27 and 0.281 and 0.311 and 0.338 and 0.371 and 0.335 | MTT assay reading, Average (H358; H358, 0.5 μM): 0.2334 | MTT assay reading, individual replicate (H358; H358, 0.5 μM): 0.263 and 0.209 and 0.189 and 0.244 and 0.198 and 0.235 and 0.296 | MTT assay reading, Average (H358; H358, 1 μM): 0.2736 | MTT assay reading, individual replicate (H358; H358, 1 μM): 0.308 and 0.205 and 0.243 and 0.287 and 0.258 and 0.247 and 0.367 | % control (A549; A549, 0.01 μM): 0.35% | MTT assay reading, Average (A549; A549, 0.01 μM): 0.463 | MTT assay reading, individual replicate (A549; A549, 0.01 μM): 0.425 and 0.439 and 0.541 and 0.451 and 0.45 and 0.428 and 0.507 | % control (A549; A549, 0.1 μM): 0.27% | MTT assay reading, Average (A549; A549, 0.1 μM): 0.3653 | MTT assay reading, individual replicate (A549; A549, 0.1 μM): 0.418 and 0.293 and 0.364 and 0.26 and 0.429 and 0.354 and 0.439 | % control (A549; A549, 0.5 μM): 0.27% | MTT assay reading, Average (A549; A549, 0.5 μM): 0.3657 | MTT assay reading, individual replicate (A549; A549, 0.5 μM): 0.284 and 0.833 and 0.266 and 0.314 and 0.246 and 0.308 and 0.309 | % control (A549; A549, 1 μM): 0.13% | MTT assay reading, Average (A549; A549, 1 μM): 0.1791 | MTT assay reading, individual replicate (A549; A549, 1 μM): 0.188 and 0.171 and 0.176 and 0.213 and 0.173 and 0.141 and 0.192 | MTT assay reading, Average (H322; H322, 0.01 μM): 0.4327 | MTT assay reading, individual replicate (H322; H322, 0.01 μM): 0.477 and 0.569 and 0.498 and 0.266 and 0.304 and 0.489 and 0.426 | MTT assay reading, Average (H322; H322, 0.1 μM): 0.3726 | MTT assay reading, individual replicate (H322; H322, 0.1 μM): 0.414 and 0.357 and 0.41 and 0.408 and 0.319 and 0.361 and 0.339 | MTT assay reading, Average (H322; H322, 0.5 μM): 0.322 | MTT assay reading, individual replicate (H322; H322, 0.5 μM): 0.262 and 0.328 and 0.307 and 0.34 and 0.378 and 0.353 and 0.286 | MTT assay reading, Average (H322; H322, 1 μM): 0.2547 | MTT assay reading, individual replicate (H322; H322, 1 μM): 0.229 and 0.223 and 0.225 and 0.288 and 0.226 and 0.338 and 0.254

bromorot-2′-enoic acid
inhibiting cell growth in NSCLC cells, ranking among the derivatives (NSCLC cells): most effective
